For 43 molecules, AC50 results are on record in ChEMBL document CHEMBL5291721, “A preclinical secondary pharmacology resource illuminates target-adverse drug reaction associations of marketed drugs” (Nat Commun, 2023).

Experiment [1] addresses T1, Muscarinic acetylcholine receptor M1 (Homo sapiens, UniProt P11229).
T1 sequence (P11229 whole entry): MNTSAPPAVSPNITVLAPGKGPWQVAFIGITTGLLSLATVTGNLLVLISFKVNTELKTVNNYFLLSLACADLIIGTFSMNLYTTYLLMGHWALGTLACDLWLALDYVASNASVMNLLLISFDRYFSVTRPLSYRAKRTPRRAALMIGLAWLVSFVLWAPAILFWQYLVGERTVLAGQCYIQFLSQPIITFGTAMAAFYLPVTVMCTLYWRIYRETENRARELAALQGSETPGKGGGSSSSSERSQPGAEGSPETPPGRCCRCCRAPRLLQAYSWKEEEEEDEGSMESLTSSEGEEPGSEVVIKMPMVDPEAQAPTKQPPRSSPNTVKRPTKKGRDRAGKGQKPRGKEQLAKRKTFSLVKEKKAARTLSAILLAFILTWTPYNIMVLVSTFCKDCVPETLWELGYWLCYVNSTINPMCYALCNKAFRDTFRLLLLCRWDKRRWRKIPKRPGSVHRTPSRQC
In kind it is functional.

Experiment [2] deals with 5-hydroxytryptamine receptor 2A (Homo sapiens, UniProt P28223). In kind it is functional, cell-based.
Experiment [3] deals with T2, Gamma-aminobutyric acid receptor subunit alpha-1/alpha-2/beta-2/gamma-2 (Homo sapiens, UniProt P14867+P18507+P47869+P47870). The class given is protein-complex assay.
Experiment [4] concerns the target T3, Endothelin-1 receptor (Homo sapiens, UniProt P25101).
T3 sequence (P25101 whole entry): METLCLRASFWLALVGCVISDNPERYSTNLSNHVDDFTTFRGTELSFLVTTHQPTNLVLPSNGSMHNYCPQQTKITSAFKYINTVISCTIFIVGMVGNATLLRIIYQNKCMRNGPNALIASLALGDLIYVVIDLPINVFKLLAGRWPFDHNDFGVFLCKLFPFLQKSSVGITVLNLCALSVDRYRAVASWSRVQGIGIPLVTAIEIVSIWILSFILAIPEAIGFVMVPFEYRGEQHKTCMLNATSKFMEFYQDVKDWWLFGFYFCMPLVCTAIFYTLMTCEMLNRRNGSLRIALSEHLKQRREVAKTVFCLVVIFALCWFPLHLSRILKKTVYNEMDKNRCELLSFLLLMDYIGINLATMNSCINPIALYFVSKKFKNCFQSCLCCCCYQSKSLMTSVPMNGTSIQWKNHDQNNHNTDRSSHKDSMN

Experiment [5] deals with Beta-2 adrenergic receptor (Homo sapiens, UniProt P07550). In kind it is functional, cell-based.
The target of experiment [6] is T2, Gamma-aminobutyric acid receptor subunit alpha-1/alpha-2/beta-2/gamma-2. In kind it is functional, cell-based.
In experiment [7] the target is Voltage-dependent N-type calcium channel subunit alpha-1B (Rattus norvegicus, UniProt Q02294). In kind it is functional.
The target of experiment [8] is Neurotensin receptor type 1 (Homo sapiens, UniProt P30989).

Each structure is given as a SMILES string.
Note: assay procedure not described here.

T2 sequence (P14867 whole entry): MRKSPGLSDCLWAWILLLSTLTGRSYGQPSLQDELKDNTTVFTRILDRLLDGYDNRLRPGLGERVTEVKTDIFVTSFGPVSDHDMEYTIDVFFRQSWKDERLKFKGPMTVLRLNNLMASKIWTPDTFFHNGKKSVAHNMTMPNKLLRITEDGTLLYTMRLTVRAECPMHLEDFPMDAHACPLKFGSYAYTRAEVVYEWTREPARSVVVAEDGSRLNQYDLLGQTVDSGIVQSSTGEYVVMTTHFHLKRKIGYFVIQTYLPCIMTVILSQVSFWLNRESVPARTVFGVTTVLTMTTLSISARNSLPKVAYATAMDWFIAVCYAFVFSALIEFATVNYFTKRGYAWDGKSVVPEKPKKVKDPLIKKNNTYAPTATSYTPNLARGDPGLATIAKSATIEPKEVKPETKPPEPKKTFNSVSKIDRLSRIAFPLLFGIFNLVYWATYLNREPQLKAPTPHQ
T2 sequence (P47870 whole entry): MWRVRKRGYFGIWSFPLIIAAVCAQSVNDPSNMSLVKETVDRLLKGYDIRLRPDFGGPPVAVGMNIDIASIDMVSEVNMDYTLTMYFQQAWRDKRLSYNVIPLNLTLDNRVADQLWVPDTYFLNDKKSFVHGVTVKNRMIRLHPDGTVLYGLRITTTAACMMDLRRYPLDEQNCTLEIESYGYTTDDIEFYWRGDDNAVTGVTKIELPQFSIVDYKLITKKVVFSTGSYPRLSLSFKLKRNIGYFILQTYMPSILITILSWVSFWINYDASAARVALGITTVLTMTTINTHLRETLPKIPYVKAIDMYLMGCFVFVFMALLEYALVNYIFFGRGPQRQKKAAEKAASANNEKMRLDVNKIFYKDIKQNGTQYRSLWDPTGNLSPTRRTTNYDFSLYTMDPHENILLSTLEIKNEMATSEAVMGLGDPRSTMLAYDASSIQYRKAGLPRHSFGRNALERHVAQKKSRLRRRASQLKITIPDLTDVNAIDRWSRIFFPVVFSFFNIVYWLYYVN
T2 sequence (P18507 whole entry): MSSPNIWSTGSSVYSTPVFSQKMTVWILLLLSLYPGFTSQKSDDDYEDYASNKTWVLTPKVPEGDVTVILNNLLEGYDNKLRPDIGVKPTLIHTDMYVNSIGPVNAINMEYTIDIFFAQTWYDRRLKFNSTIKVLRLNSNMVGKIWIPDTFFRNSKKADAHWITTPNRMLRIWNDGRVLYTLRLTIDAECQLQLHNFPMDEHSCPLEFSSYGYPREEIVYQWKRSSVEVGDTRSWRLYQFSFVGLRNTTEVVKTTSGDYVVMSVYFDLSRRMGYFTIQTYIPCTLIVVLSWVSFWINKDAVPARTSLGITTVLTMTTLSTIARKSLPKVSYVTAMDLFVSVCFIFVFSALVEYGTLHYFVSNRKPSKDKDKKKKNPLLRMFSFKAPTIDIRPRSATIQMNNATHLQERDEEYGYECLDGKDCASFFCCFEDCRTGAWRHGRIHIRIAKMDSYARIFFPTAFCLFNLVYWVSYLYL
T2 sequence (P47869 whole entry): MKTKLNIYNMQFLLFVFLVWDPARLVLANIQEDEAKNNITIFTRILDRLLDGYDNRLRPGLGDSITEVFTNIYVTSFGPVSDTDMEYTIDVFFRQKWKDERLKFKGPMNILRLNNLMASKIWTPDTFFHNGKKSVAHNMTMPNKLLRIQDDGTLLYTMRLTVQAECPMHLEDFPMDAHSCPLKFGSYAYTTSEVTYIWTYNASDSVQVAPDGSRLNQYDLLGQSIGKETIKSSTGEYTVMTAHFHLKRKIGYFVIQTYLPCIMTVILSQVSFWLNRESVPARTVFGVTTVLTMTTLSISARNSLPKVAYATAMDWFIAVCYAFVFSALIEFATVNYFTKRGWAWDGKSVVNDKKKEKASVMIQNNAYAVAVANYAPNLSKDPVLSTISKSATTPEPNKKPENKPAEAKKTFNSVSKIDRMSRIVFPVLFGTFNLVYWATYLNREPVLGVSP
Chain of 5-hydroxytryptamine receptor 2A (P28223 whole entry): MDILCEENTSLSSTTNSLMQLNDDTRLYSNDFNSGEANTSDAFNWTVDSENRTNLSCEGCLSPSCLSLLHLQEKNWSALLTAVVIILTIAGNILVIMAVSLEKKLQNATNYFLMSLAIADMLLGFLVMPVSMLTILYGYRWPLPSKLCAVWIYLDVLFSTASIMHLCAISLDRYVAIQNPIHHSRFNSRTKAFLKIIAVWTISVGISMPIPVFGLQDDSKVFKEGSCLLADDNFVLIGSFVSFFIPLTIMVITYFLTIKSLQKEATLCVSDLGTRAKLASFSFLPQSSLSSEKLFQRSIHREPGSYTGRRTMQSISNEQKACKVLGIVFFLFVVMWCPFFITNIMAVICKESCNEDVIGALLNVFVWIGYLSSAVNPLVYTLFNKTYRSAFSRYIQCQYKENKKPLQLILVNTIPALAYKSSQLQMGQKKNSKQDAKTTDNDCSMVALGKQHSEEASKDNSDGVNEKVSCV
Chain of Beta-2 adrenergic receptor (P07550 whole entry): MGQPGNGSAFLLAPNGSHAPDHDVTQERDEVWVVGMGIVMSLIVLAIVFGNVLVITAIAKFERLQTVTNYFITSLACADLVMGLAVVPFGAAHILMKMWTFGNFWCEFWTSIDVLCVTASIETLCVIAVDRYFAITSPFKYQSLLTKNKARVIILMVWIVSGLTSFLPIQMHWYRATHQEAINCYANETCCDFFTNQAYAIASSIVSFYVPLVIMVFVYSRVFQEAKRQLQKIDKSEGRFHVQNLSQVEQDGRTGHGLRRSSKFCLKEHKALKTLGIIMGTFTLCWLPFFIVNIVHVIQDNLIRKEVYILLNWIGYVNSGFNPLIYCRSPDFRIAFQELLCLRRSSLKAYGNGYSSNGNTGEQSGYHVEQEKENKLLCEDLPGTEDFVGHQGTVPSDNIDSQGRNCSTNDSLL
Chain of Neurotensin receptor type 1 (P30989 whole entry): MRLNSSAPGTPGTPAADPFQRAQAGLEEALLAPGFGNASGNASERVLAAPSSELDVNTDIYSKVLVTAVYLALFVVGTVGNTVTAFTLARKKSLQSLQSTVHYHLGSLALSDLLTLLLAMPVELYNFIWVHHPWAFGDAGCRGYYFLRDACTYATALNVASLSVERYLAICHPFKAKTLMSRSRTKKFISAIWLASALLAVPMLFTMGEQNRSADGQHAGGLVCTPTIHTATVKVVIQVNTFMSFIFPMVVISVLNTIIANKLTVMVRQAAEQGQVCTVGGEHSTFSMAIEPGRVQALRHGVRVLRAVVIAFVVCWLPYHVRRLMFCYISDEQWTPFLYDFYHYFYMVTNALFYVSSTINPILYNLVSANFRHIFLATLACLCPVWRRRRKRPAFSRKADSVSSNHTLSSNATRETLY

Broadly, the AC50 is the concentration at which the activity in the assay is half-maximal. As to `O=C1c2cccc3c2[C@H](CCC3)CN1[C@@H]1CN2CCC1CC2` [PALONOSETRON], the AC50 in experiment [1] and in experiment [2] was above 30 µM in each case.
For the molecule `COc1cccc(C(=O)CCN[C@@H](C)[C@H](O)c2ccccc2)c1` [OXYFEDRINE], the AC50 in experiment [3] is above 30 µM.
For the molecule `Cc1cccc(C)c1NC(=O)CC12CCCN1CCC2` [PILSICAINIDE], the AC50 in experiment [1], in experiment [4] and in experiment [2] was above 30 µM each time.
With `C[C@@H]1C[C@H]2[C@@H]3C[C@H](F)C4=CC(=O)C=C[C@]4(C)[C@H]3[C@@H](O)C[C@]2(C)[C@@]1(O)C(=O)CO` [PARAMETHASONE], in experiment [3], the AC50 is above 30 µM.
`CC(OCCN1CCCCCC1)(c1ccccc1)c1ccc(Cl)cc1` (stereo not drawn) [SETASTINE]: the AC50 in experiment [3] is above 30 µM.
Still for that read-out and setting: as for `Cc1ncc2c(c1O)COC2c1ccc(Cl)cc1` (stereo not drawn) [CICLETANINE], the figure is above 30 µM.
Consider `CC(C)c1cccc(C(C)C)c1O` [PROPOFOL], for which the AC50 in experiment [5] is above 30 µM; in experiment [4] it was above 30 µM; in experiment [6], 2 µM.
Regarding `c1ccc2c(SC3=NCCN3)c[nH]c2c1` [TINAZOLINE], the AC50 in experiment [3] was above 30 µM.
Regarding `C[N+]1(C)CCC(=C(c2ccccc2)c2ccccc2)CC1`, the AC50 in experiment [1] was 0.41 µM; in experiment [2] it was 19 µM.
As to `Clc1ccc(C(Cn2ccnc2)OCc2csc3c(Cl)cccc23)c(Cl)c1` (stereo not drawn) [SERTACONAZOLE], in experiment [3], the AC50 was above 10 µM.
In the case of `CCOC(=O)c1c(CSc2ccccc2)n(C)c2cc(Br)c(O)c(CN(C)C)c12` [UMIFENOVIR], the AC50 is 18 µM in experiment [1], above 30 µM in experiment [4] and 6.7 µM in experiment [2].
Consider `C[C@]12C=CC(=O)C=C1CC[C@@H]1[C@@H]2CC[C@]2(C)OC(=O)CC[C@@H]12` [TESTOLACTONE], for which the AC50 in experiment [5] is above 30 µM; in experiment [1], above 10 µM; in experiment [2], above 30 µM.
Take `COC(=O)C1=C(C)NC(C)=C(C(=O)OCCN2CCN(C(c3ccccc3)c3ccccc3)CC2)C1c1cccc([N+](=O)[O-])c1` (stereo not drawn) [MANIDIPINE 6300]: the AC50 in experiment [5], in experiment [1], in experiment [4] and in experiment [2] was above 30 µM each time.
With `COc1ccc([C@@H]2CC(=O)c3c(O)cc(O)cc3O2)cc1O` [HESPERETIN], the AC50 in experiment [1] and in experiment [2] was above 10 µM throughout.
As for `N#Cc1ccc(Oc2ccc3c(c2)COB3O)cc1` [CRISABOROLE], the AC50 in experiment [3] is above 30 µM.
The same measure, in the same setting: in the case of `C[C@H](CCC(=O)O)[C@H]1CC[C@H]2[C@@H]3[C@H](O)C[C@@H]4C[C@H](O)CC[C@]4(C)[C@H]3C[C@H](O)[C@]12C` [CHOLIC ACID] it was above 30 µM.
In the case of `CCCN1CC(NS(=O)(=O)N(CC)CC)CC2Cc3c(O)cccc3CC21` (stereo not drawn) [QUINAGOLIDE], the AC50 in experiment [5], in experiment [1] and in experiment [4] was above 30 µM each time.
Turning to `C=C1c2cccc(O)c2C(=O)C2=C(O)[C@]3(O)C(=O)C(C(N)=O)=C(O)[C@@H](N(C)C)[C@@H]3[C@@H](O)[C@H]12` [METHACYCLINE], the AC50 in experiment [1] and in experiment [2] was above 10 µM throughout.
Regarding `CCC1(c2ccc(N)cc2)CCC(=O)NC1=O` (stereo not drawn) [AMINOGLUTETHIMIDE], the half-maximal activity concentration (AC50) in experiment [5], in experiment [4] and in experiment [6] was above 30 µM each time.
In the case of `NC(=O)[C@@H]1CC[C@@H]2CN1C(=O)N2OS(=O)(=O)O` [AVIBACTAM], the AC50 in experiment [3] is above 30 µM.
Consider `CN(Cc1cnc2nc(N)nc(N)c2n1)c1ccc(C(=O)N[C@@H](CCC(=O)O)C(=O)O)cc1` [METHOTREXATE], for which the AC50 in experiment [5] is above 30 µM; in experiment [7], above 10 µM; in experiment [4] it was above 30 µM; in experiment [8] it was above 30 µM.
As for `OC[C@H]1O[C@@H](n2cnc3c2NC=NC[C@H]3O)C[C@@H]1O` [PENTOSTATIN], the AC50 in experiment [5], in experiment [1], in experiment [4], in experiment [6] and in experiment [2] was above 30 µM in each case.
`CC[N+](C)(CC)CCOC(=O)C(O)(c1ccccc1)C1CCCCC1` (stereo not drawn) [OXYPHENONIUM] returned an AC50 in experiment [3] above 30 µM.
`C[N+](C)(C)CCOP(=O)([O-])OC[C@H](O)CO`: the AC50 in experiment [5] and in experiment [4] was above 30 µM in each case.
In the case of `NNCCc1ccccc1` [PHENELZINE], in experiment [3], the AC50 is above 30 µM.
For `CC1=C(C(=O)OC(C)C)C(c2cccc([N+](=O)[O-])c2)C(C(=O)OC2CN(C(c3ccccc3)c3ccccc3)C2)=C(N)N1` (stereo not drawn) [AZELNIDIPINE], the AC50 in experiment [1], in experiment [4] and in experiment [2] was above 30 µM in each case.
In experiment [4], `CN[C@]1(c2ccccc2Cl)CCCCC1=O` [ESKETAMINE] displayed a half-maximal activity concentration (AC50) above 30 µM.
`CC(=O)O[C@H]1Cc2ccccc2N(C(N)=O)c2ccccc21` [ESLICARBAZEPINE ACETATE] came in with an AC50 in experiment [3] above 30 µM.
`CC1(CCN2CCCCC2)C(=O)CCc2ccccc21` (stereo not drawn) [NEPINALONE] displayed an AC50 in experiment [3] above 30 µM.
Molecule `C=C1CC[C@H](O)C/C1=C/C=C1\CCC[C@]2(C)[C@@H]([C@H](C)CCCC(C)C)CC[C@@H]12` [CHOLECALCIFEROL] displayed an AC50 in experiment [3] above 30 µM.
In experiment [3], `Cc1ccc(C(=O)C(C)CN2CCCCC2)cc1` (stereo not drawn) [TOLPERISONE] registered an AC50 above 30 µM.
In experiment [3], `COc1ccc(OC)c(C(O)C(C)N)c1` (stereo not drawn) [METHOXAMINE] yielded an AC50 above 30 µM.
In experiment [5], `CCC[C@@H]1C[C@@H](C(=O)N[C@@H]([C@H]2O[C@H](SC)[C@H](O)[C@@H](O)[C@H]2O)[C@@H](C)O)N(C)C1` [LINCOMYCIN] gave an AC50 above 30 µM.
As to `O=C1OC(OC(=O)c2cccnc2Nc2cccc(C(F)(F)F)c2)c2ccccc21` (stereo not drawn) [TALNIFLUMATE], the AC50 in experiment [5], in experiment [1], in experiment [4], in experiment [6] and in experiment [2] was above 30 µM in each case.
Molecule `C/C=C(/C(=C/C)c1ccc(O)cc1)c1ccc(O)cc1` [DIENESTROL] had an AC50 in experiment [2] above 10 µM.
In the case of `Cc1ccccc1-n1c(CF)nc2ccc(N)cc2c1=O` [AFLOQUALONE], the AC50 in experiment [1] and in experiment [2] was above 10 µM throughout.
Molecule `CCCn1cnc2c1c(=O)n(CCCCC(C)=O)c(=O)n2C` [PROPENTOFYLLINE] returned an AC50 in experiment [3] above 30 µM.
As to `CN(C)Cc1nnc2n1-c1ccc(Cl)cc1C(c1ccccc1)=NC2` [ADINAZOLAM], the AC50 in experiment [1] was above 10 µM.
In turn, `CCOC(=O)C1=C(C)NC(C)=C(C(=O)OCC)C1c1ccccc1/C=C/C(=O)OC(C)(C)C` [LACIDIPINE] displayed an AC50 in experiment [4] above 30 µM.
On to `CN(C)C/C=C/C(=O)Nc1cc2c(Nc3ccc(F)c(Cl)c3)ncnc2cc1O[C@H]1CCOC1` [AFATINIB], for which the half-maximal activity concentration (AC50) in experiment [5], in experiment [1], in experiment [4], in experiment [6] and in experiment [2] was above 30 µM each time.
Take `CC(Cc1cccc(C(F)(F)F)c1)NCCOC(=O)c1ccccc1` (stereo not drawn) [BENFLUOREX]: the AC50 is above 30 µM in experiment [5], above 30 µM in experiment [1], above 30 µM in experiment [4] and 6.86 µM in experiment [2].
`COC(=O)[C@H]1[C@H]2C[C@@H]3c4[nH]c5cc(OC)ccc5c4CCN3C[C@H]2C[C@@H](OC(=O)c2cc(OC)c(OC)c(OC)c2)[C@@H]1OC` [RESERPINE] registered a half-maximal activity concentration (AC50) in experiment [3] above 10 µM.
On to `CNCCc1ccc(OC(=O)C(C)C)c(OC(=O)C(C)C)c1` [IBOPAMINE], for which the AC50 was 9.93 µM in experiment [5]; above 30 µM in experiment [1]; above 30 µM in experiment [4]; above 30 µM in experiment [6]; above 30 µM in experiment [2].
